{
  "source": "paper doi:10.1101/2025.03.13.643086",
  "about": "“Granzyme-targeting quenched activity-based probes for assessing tumor response to immunotherapy” (bioRxiv, 2025)",
  "test_system": "GzmB activity in NK-92 cells",
  "test": "Flow cytometry analysis of protein labeling by ABPs in NK-92 and MDA-MB-231 cells",
  "type": "cell-based, human",
  "conditions": "5 μM",
  "procedure": "Figure 3. GzmB ABPs selectively label active GzmB in cells. (A) Gel-based analysis of GzmB labeling by ABPs in NK-92 cells. 5x10^5 NK-92 cells were incubated with each ABP at varying concentrations for 2 h at 37 °C. After cell lysis, protein samples were analyzed by SDS-PAGE and in-gel fluorescence scanning for Cy5 signal. Expression of GzmB was confirmed by western blotting. (B) Gel-based analysis of GzmB labeling by qABP 10 in different cells. 2x10^6 NK-92, MDA-MB-231, Jurkat, and HEK cells were incubated with compound 10 (5 μM) at 37 °C for 2 h. After cell lysis, protein samples were analyzed by SDS-PAGE and in-gel fluorescence scanning for Cy5 signal. […] Protein samples were analyzed by SDS-PAGE and in-gel fluorescence scanning for Cy5 signal. […] Top: Histogram; Bottom: Mean fluorescence intensity (MFI) in MDA-MB-231 cells. […]\nHistogram of flow cytometry data for NK-92 cells incubated with qABP 10. Right: Quantification of mean Cy5 fluorescence intensity. […]\n3-5 mice/group. For all studies, mice were monitored by daily observation and serial tumor measurements and body weights.\nMice were treated with 20 mg/kg BEC i.v., 10 mg/kg anti-PD1 i.p., 5 mg/kg anti-CTLA4 i.p. or a combination of 10 mg/kg anti-PD-1 and 5 mg/kg anti-CTLA4. […] On day 9 post-treatment, the mice were injected with 2 nmol/g GzmB qABP i.v., followed by fluorescence imaging at 2, 4, 8, and 24 h. […]",
  "data": [
    {"compound": "CC[C@H](C)[C@H](NC(=O)CCCCCN1/C(=C/C=C/C=C/C2=[N+](CC)c3ccc(S(=O)(=O)O)cc3C2(C)C)C(C)(C)c2cc(S(=O)(=O)O)ccc21)C(=O)N[C@@H](CCC(=O)O)C(=O)N1CCC[C@H]1C(=O)NC(CS(=O)(=O)O)P(=O)(Oc1ccc(CCNC(=O)C2CCN(S(=O)(=O)c3ccccc3-c3c4ccc(=[N+]5CCc6ccccc65)cc-4oc4cc(N5CCc6ccccc65)ccc34)CC2)cc1)c1ccccc1", "note": "(some centres unmarked) [Compound 10, Cy5-IEPCya^PhP-QSY21]", "values": [
      {"measurement": "fluorescence intensity in NK-92 cells relative to GzmB non-expressing MDA-MB-231 cells", "result": "approximately 9.1 fold"},
      {"measurement": "signal-to-noise (S/N), NK-92 vs MDA-MB-231 cells", "setting": "37 °C, 2 h", "result": 9.09}
    ]}
  ]
}
